Assay results reported in US7892789B2, “Method of increasing cell permeability to trehalose by recombinantly producing a trehalose transporter” (priority 2007, dated 2011).

Assays:
Format in all cases: cell-based
Conditions in all cases: 105 mM of trehalose, 3 h
DmTRET1 = molecular target: T1, DmTRET1 (Drosophila melanogaster, UniProt A1Z8N1); assay: Trehalose uptake in Xenopus oocytes expressing DmTRET1
T1 construct: ORF of either Tret1, DmTret1, AmTret1, AgTret1 or BmTret1 cDNA was amplified with PCR; expressed in transfected cells; host or cells: Xenopus laevis oocytes injected with cRNA
T1 sequence (A1Z8N1 352-857): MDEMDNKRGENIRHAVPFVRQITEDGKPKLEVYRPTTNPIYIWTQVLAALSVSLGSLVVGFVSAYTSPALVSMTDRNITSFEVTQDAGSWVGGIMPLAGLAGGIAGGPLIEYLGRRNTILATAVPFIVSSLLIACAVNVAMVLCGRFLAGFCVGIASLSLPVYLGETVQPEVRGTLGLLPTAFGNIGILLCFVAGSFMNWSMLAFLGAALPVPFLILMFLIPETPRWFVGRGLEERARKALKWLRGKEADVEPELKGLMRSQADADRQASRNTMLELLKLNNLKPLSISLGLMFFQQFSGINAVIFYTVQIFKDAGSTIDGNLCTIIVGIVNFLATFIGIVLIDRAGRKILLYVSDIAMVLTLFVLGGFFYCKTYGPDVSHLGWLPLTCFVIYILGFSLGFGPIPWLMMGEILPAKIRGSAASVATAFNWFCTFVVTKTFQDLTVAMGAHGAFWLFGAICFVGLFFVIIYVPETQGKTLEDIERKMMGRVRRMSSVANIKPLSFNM
Source text: (§1) The capped RNA (cRNA) expression vector pTRET1-XbG-ev1 series was constructed as follows: ORF of either Tret1, DmTret1, AmTret1, AgTret1 or BmTret1 cDNA was amplified with PCR using specific primers containing Bgl II site at the 5′-end on each primer, respectively. The PCR products were digested with the restriction enzymes, and cloned into the site of Bgl II in pXbG-ev1 (Preston, G. M., et al. (1992) Science 256, 385-387). ORF of hGLUT1 cDNA was obtained by digestion of pSPMM1 with BamH I, and then subcloned into the site of Bgl II in pXbG-2. Template DNAs for cRNA synthesis were amplified from the corresponding cRNA expression vectors with a high fidelity DNA polymerase, KOD—Plus—, (TOYOBO). The cRNAs were synthesized with mMESSAGE mMACHINE T7 Kit (Ambion), and then purified with RNeasy MiniElute Cleanup kit (Qiagen).
(§2) All uptake assays for zero-trans trehalose and/or other sugars were performed using Xenopus oocytes expressing TRET1 at 15° C. in MBS containing appropriate concentrations of sugars. Sugar concentrations were determined using HPLC (Watanabe, M., et al. (2002) J Exp Biol 205, 2799-2802). All assays were carried out in triplicate. […] (data not shown).
(§3) Likewise, whether these Tret1-orthologs have trehalose transport activity was examined using the Xenopus oocyte expression system incubated in 105 mM of trehalose for 3 h.

BmTRET1 = molecular target: T2, BmTRET1 (Bombyx mori, UniProt A9ZSY3); assay: Trehalose uptake in Xenopus oocytes expressing BmTRET1
T2 construct: ORF of either Tret1, DmTret1, AmTret1, AgTret1 or BmTret1 cDNA was amplified with PCR; expressed in transfected cells; host or cells: Xenopus laevis oocytes injected with cRNA
T2 sequence (A9ZSY3 1-505): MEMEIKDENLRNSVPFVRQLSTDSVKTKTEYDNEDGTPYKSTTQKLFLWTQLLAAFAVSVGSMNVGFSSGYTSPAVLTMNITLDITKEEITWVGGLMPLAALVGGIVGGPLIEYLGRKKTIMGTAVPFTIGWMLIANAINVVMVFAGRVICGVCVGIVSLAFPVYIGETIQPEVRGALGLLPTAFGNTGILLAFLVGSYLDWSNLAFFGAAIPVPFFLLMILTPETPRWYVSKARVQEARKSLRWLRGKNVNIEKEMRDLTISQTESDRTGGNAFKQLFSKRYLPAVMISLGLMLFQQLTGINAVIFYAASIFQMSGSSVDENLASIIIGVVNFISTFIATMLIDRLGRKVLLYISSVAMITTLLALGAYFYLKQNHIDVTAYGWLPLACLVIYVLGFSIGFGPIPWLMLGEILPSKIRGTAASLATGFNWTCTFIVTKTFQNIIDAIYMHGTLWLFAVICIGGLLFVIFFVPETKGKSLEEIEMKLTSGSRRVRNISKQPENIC
Source text: as §1, §2, §3

AgTRET1 = molecular target: T3, AgTRET1 (Anopheles gambiae, UniProt Q7PIR5); assay: Trehalose uptake in Xenopus oocytes expressing AgTRET1
T3 construct: ORF of either Tret1, DmTret1, AmTret1, AgTret1 or BmTret1 cDNA was amplified with PCR; expressed in transfected cells; host or cells: Xenopus laevis oocytes injected with cRNA
T3 sequence (Q7PIR5 290-793): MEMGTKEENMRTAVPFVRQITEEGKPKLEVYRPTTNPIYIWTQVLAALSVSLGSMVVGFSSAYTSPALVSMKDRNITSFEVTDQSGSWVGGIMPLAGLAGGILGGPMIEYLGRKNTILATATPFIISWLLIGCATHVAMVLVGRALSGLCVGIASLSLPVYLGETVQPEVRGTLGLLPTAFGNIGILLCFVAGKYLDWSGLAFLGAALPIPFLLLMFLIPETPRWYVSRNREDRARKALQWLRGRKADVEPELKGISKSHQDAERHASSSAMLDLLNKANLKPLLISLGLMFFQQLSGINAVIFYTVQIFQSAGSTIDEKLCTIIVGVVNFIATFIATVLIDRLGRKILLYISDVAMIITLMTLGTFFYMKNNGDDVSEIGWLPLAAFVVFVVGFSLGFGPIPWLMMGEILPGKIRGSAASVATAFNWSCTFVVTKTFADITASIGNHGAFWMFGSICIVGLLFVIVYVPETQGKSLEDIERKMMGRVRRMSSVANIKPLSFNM
Source text: as §1, §2, §3

Measured: trehalose transport activity

OC[C@H]1O[C@H](O[C@H]2O[C@H](CO)[C@@H](O)[C@H](O)[C@H]2O)[C@H](O)[C@@H](O)[C@@H]1O [trehalose]
showed trehalose transport activity: all assays above
